From patent US20160242416A1, “FUNGICIDAL ISOXAZOLINE CARBINOLS” (E I DU PONT DE NEMOURS AND COMPANY, priority 2015, published 2016)

What was measured:
[1] = system: Phytophthora infestans; type: in vivo; settings: 100 = 100% disease control; for Test C rating (% disease control): 50 ppm (asterisk), tomato late blight, 0 = no control; for Test C disease control rating: 50 ppm test solution (asterisked compounds), 0 = no control relative to controls
[2] = system: Botrytis cinerea; assay: Test B: gray mold, preventive spray on tomato seedlings; settings: 100 = 100% disease control; for Test B rating (% disease control): 50 ppm (asterisk), gray mold on tomato, 0 = no control; for Test B disease control rating: 50 ppm test solution (asterisked compounds), 0 = no control relative to controls
Excerpt: General protocol for preparing test solutions for Tests A-G: the test compounds were first dissolved in acetone in an amount equal to 3% of the final volume and then suspended at the desired concentration (in ppm) in acetone and purified water (50/50 mix by volume) containing 250 ppm of the surfactant PEG400 (polyhydric alcohol esters). The resulting test suspensions were then used in Tests A-G. Compounds were sprayed at a concentration of 50 ppm (*) or 10 ppm to the point of run-off on the test plants, the equivalent of a rate of 200 g/ha or 40 g/ha, respectively.
The test solution was sprayed to the point of run-off on tomato seedlings. The following day the seedlings were inoculated with a spore suspension of Botrytis cinerea (the causal agent of gray mold on many crops) and incubated in a saturated atmosphere at 20° C. for 48 h, and moved to a growth chamber at 27° C. for 2 days, after which time visual disease ratings were made.
Compounds with an asterisks (*) were applied at a concentration of 50 ppm, otherwise test solutions were applied at 10 ppm.

[3] = system: Puccinia recondita f sp. tritici; assay: Test F: wheat leaf rust, preventive spray on wheat seedlings; settings: 100 = 100% disease control; for Test F rating (% disease control): 50 ppm (asterisk), wheat leaf rust, 0 = no control; for Test F disease control rating: 50 ppm test solution (asterisked compounds), 0 = no control relative to controls
[4] = system: Zymoseptoria tritici; assay: Test E: wheat leaf blotch, preventive spray on wheat seedlings; settings: 100 = 100% disease control; for Test E rating (% disease control): 50 ppm (asterisk), wheat leaf blotch, 0 = no control; for Test E disease control rating: 50 ppm test solution (asterisked compounds), 0 = no control relative to controls
[5] = system: Stagonospora nodorum; assay: Test D: wheat glume blotch, preventive spray on wheat seedlings; settings: 100 = 100% disease control; for Test D rating (% disease control): 50 ppm (asterisk), wheat glume blotch, 0 = no control; for Test D disease control rating: 50 ppm test solution (asterisked compounds), 0 = no control relative to controls
[6] = system: Erysiphe graminis f sp. tritici; assay: Test G: wheat powdery mildew, preventive spray on wheat seedlings; settings: 100 = 100% disease control; for Test G rating (% disease control): 50 ppm (asterisk), wheat powdery mildew, 0 = no control; for Test G disease control rating: 50 ppm test solution (asterisked compounds), 0 = no control relative to controls

`OC(Cn1cncn1)(C1=NOC(c2ccc(Cl)cc2)C1)c1ccccc1` (mixture of isomers) [Compound 117] was tested, and the “Test C rating (% disease control)” value [1] was 0%, the “Test B rating (% disease control)” value [2] was 61% and the “Test F rating (% disease control)” value [3] was 99%. For the same compound, the “Test E rating (% disease control)” value [4] was 11%, the “Test D rating (% disease control)” value [5] was 100% and the “Test G rating (% disease control)” value [6] was 98%.
In the case of `OC(Cn1cncn1)(C1=NOC(c2ccccc2F)C1)c1ccccc1` (mixture of isomers) [Compound 118], the “Test C rating (% disease control)” value [1] is reported as 0%, the “Test B rating (% disease control)” value [2] is reported as 68% and the “Test F rating (% disease control)” value [3] is reported as 89%. The “Test E rating (% disease control)” value [4] was 0%, the “Test D rating (% disease control)” value [5] was 100% and the “Test G rating (% disease control)” value [6] was 99%.
For `OC(Cn1cncn1)(C1=NOC(c2ccc(Cl)cc2)C1)c1ccc(Cl)cc1` (single isomer, unassigned) [Compound 120], the “Test C rating (% disease control)” value [1] was 0%, the “Test B rating (% disease control)” value [2] was 0% and the “Test F rating (% disease control)” value [3] was 100%. For the same compound, the “Test E rating (% disease control)” value [4] was 8%, the “Test D rating (% disease control)” value [5] was 95% and the “Test G rating (% disease control)” value [6] was 98%.
`OC(Cn1cncn1)(C1=NOC(c2ccc(F)cc2)C1)c1ccc(F)cc1` (single isomer, unassigned) [Compound 122] was tested, and the “Test C rating (% disease control)” value [1] was 0%, the “Test B rating (% disease control)” value [2] was 0% and the “Test F rating (% disease control)” value [3] was 100%. The “Test E rating (% disease control)” value [4] was 77%, the “Test D rating (% disease control)” value [5] was 100% and the “Test G rating (% disease control)” value [6] was 100%.
With `OC(Cn1cncn1)(C1=NOC(c2ccc(Cl)cc2)C1)c1ccc(Cl)cc1` (single isomer, unassigned) [Compound 123] the “Test C rating (% disease control)” value [1] was 0%, the “Test B rating (% disease control)” value [2] was 56% and the “Test F rating (% disease control)” value [3] was 100%. For the same compound, the “Test E rating (% disease control)” value [4] was 100%, the “Test D rating (% disease control)” value [5] was 100% and the “Test G rating (% disease control)” value [6] was 100%.
`CC(C)(C)C1CC(C(O)(Cn2cncn2)c2ccccc2)=NO1` (single isomer, unassigned) [Compound 124] was tested, and the “Test C rating (% disease control)” value [1] was 0%, the “Test B rating (% disease control)” value [2] was 0% and the “Test F rating (% disease control)” value [3] was 28%. The “Test E rating (% disease control)” value [4] was 6%, the “Test D rating (% disease control)” value [5] was 0% and the “Test G rating (% disease control)” value [6] was 96%.
In the case of `CC(C)(C)C1CC(C(O)(Cn2cncn2)c2ccccc2)=NO1` (single isomer, unassigned) [Compound 125], the “Test C rating (% disease control)” value [1] is reported as 0%, the “Test B rating (% disease control)” value [2] is reported as 0% and the “Test F rating (% disease control)” value [3] is reported as 28%. The “Test E rating (% disease control)” value [4] was 0%, the “Test D rating (% disease control)” value [5] was 0% and the “Test G rating (% disease control)” value [6] was 89%.
`OC(Cn1cncn1)(C1=NOC(c2ccc(Cl)cc2)C1)c1ccc(F)cc1F` (single isomer, unassigned) [Compound 130] was tested, and the “Test C rating (% disease control)” value [1] was 0%, the “Test B rating (% disease control)” value [2] was 14% and the “Test F rating (% disease control)” value [3] was 100%. For the same compound, the “Test E rating (% disease control)” value [4] was 11%, the “Test D rating (% disease control)” value [5] was 100% and the “Test G rating (% disease control)” value [6] was 100%.
For `OC(Cn1cncn1)(C1=NOC(c2ccc(Cl)cc2)C1)c1ccc(F)cc1F` (single isomer, unassigned) [Compound 131], the “Test C rating (% disease control)” value [1] was 0%, the “Test B rating (% disease control)” value [2] was 0% and the “Test F rating (% disease control)” value [3] was 100%. For the same compound, the “Test E rating (% disease control)” value [4] was 5%, the “Test D rating (% disease control)” value [5] was 100% and the “Test G rating (% disease control)” value [6] was 100%.
For `CC(C)(C)C(O)(Cn1cncn1)C1=NOC(c2ccc(Cl)cc2)C1` (single isomer, unassigned) [Compound 132], the “Test C rating (% disease control)” value [1] was 0%, the “Test B rating (% disease control)” value [2] was 99% and the “Test F rating (% disease control)” value [3] was 100%. For the same compound, the “Test E rating (% disease control)” value [4] was 81%, the “Test D rating (% disease control)” value [5] was 100% and the “Test G rating (% disease control)” value [6] was 100%.
`CC(C)(C)C(O)(Cn1cncn1)C1=NOC(c2ccc(Cl)cc2)C1` (single isomer, unassigned) [Compound 133] was tested, and the “Test C rating (% disease control)” value [1] was 0%, the “Test B rating (% disease control)” value [2] was 95% and the “Test F rating (% disease control)” value [3] was 100%. The “Test E rating (% disease control)” value [4] was 88%, the “Test D rating (% disease control)” value [5] was 100% and the “Test G rating (% disease control)” value [6] was 99%.
For `OC(Cn1cncn1)(C1=NOC(Cc2ccccc2)C1)c1ccc(Cl)cc1` (single isomer, unassigned) [Compound 136], the “Test C rating (% disease control)” value [1] was 0%, the “Test B rating (% disease control)” value [2] was 92% and the “Test F rating (% disease control)” value [3] was 100%. For the same compound, the “Test E rating (% disease control)” value [4] was 83%, the “Test D rating (% disease control)” value [5] was 100% and the “Test G rating (% disease control)” value [6] was 100%.
In the case of `CC1(c2ccc(Cl)cc2)CC(C(O)(Cn2cncn2)c2ccccc2)=NO1` (single isomer, unassigned) [Compound 210], the “Test C rating (% disease control)” value [1] is reported as 0%, the “Test B rating (% disease control)” value [2] is reported as 0% and the “Test F rating (% disease control)” value [3] is reported as 100%. For the same compound, the “Test E rating (% disease control)” value [4] was 41%, the “Test D rating (% disease control)” value [5] was 100% and the “Test G rating (% disease control)” value [6] was 100%.
With `CC1(c2ccc(Cl)cc2)CC(C(O)(Cn2cncn2)c2ccccc2)=NO1` (single isomer, unassigned) [Compound 211] the “Test C rating (% disease control)” value [1] was 0%, the “Test B rating (% disease control)” value [2] was 0% and the “Test F rating (% disease control)” value [3] was 28%. For the same compound, the “Test E rating (% disease control)” value [4] was 0%, the “Test D rating (% disease control)” value [5] was 0% and the “Test G rating (% disease control)” value [6] was 76%.
`CC1(c2ccc(Cl)cc2)CC(C(O)(Cn2cncn2)c2ccc(Cl)cc2)=NO1` (single isomer, unassigned) [Compound 212] was tested, and the “Test C rating (% disease control)” value [1] was 0%, the “Test B rating (% disease control)” value [2] was 28% and the “Test F rating (% disease control)” value [3] was 100%. The “Test E rating (% disease control)” value [4] was 0%, the “Test D rating (% disease control)” value [5] was 96% and the “Test G rating (% disease control)” value [6] was 100%.
In the case of `CC1(c2ccc(Cl)cc2)CC(C(O)(Cn2cncn2)c2ccc(Cl)cc2)=NO1` (single isomer, unassigned) [Compound 213], the “Test C rating (% disease control)” value [1] is reported as 0%, the “Test B rating (% disease control)” value [2] is reported as 7% and the “Test F rating (% disease control)” value [3] is reported as 99%. The “Test E rating (% disease control)” value [4] was 0%, the “Test D rating (% disease control)” value [5] was 52% and the “Test G rating (% disease control)” value [6] was 96%.
`OC(Cn1cncn1)(C1=NOC(c2ccccc2)(C(F)(F)F)C1)c1ccc(Cl)cc1` (single isomer, unassigned) [Compound 214] was tested, and the “Test C disease control rating” value [1] was 0%, the “Test B disease control rating” value [2] was 0% and the “Test F disease control rating” value [3] was 25%. For the same compound, the “Test E disease control rating” value [4] was 1%, the “Test D disease control rating” value [5] was 0% and the “Test G disease control rating” value [6] was 99%.
For `OC(Cn1cncn1)(C1=NOC(c2ccccc2)(C(F)(F)F)C1)c1ccc(Cl)cc1` (single isomer, unassigned) [Compound 215], the “Test C disease control rating” value [1] was 0%, the “Test B disease control rating” value [2] was 0% and the “Test F disease control rating” value [3] was 100%. The “Test E disease control rating” value [4] was 0%, the “Test D disease control rating” value [5] was 0% and the “Test G disease control rating” value [6] was 100%.
